Tests used:
[1] = molecular target: Lysine-specific histone demethylase 1A (Homo sapiens, UniProt O60341)
Description: Inhibition of LSD1 (unknown origin) incubated for 90 mins by fluorescence based assay

[2] = tested on: MCF7; assay: cells; conditions: Homo sapiens, MCF7, 72 h
Description: Antiproliferative activity against human MCF7 cells assessed as reduction in cell viability after 72 hrs by MTT assay

[3] = tested on: MCF7; assay: Induction of apoptosis in human MCF7 cells assessed as viable cells at 5 uM incubated for 24 hrs by AnnexinV-FITC and propidium iodide staining based flow cytometry analysis (reference value: 87.12 %); format: functional; conditions: read-out: Activity
[4] = tested on: MCF7; assay: Induction of apoptosis in human MCF7 cells assessed as early apoptotic cells at 5 uM incubated for 24 hrs by AnnexinV-FITC and propidium iodide staining based flow cytometry analysis (reference value: 3.08 %); format: functional
[5] = tested on: MCF7; assay: Induction of apoptosis in human MCF7 cells assessed as late apoptotic cells at 5 uM incubated for 24 hrs by AnnexinV-FITC and propidium iodide staining based flow cytometry analysis (reference value: 7.15 %); format: functional
[6] = tested on: MCF7; assay: Induction of apoptosis in human MCF7 cells assessed as necrotic cells at 5 uM incubated for 24 hrs by AnnexinV-FITC and propidium iodide staining based flow cytometry analysis (reference value: 2.35 %); format: functional
[7] = tested on: MCF7; assay: Induction of apoptosis in human MCF7 cells assessed as viable cells at 10 uM incubated for 24 hrs by AnnexinV-FITC and propidium iodide staining based flow cytometry analysis (reference value: 87.12 %); format: functional; conditions: read-out: Activity
[8] = tested on: MCF7; assay: Induction of apoptosis in human MCF7 cells assessed as early apoptotic cells at 10 uM incubated for 24 hrs by AnnexinV-FITC and propidium iodide staining based flow cytometry analysis (reference value: 3.08 %); format: functional
[9] = tested on: MCF7; assay: Induction of apoptosis in human MCF7 cells assessed as late apoptotic cells at 10 uM incubated for 24 hrs by AnnexinV-FITC and propidium iodide staining based flow cytometry analysis (reference value: 7.15 %); format: functional
[10] = tested on: MCF7; assay: Induction of apoptosis in human MCF7 cells assessed as necrotic cells at 10 uM incubated for 24 hrs by AnnexinV-FITC and propidium iodide staining based flow cytometry analysis (reference value: 2.35 %); format: functional
[11] = tested on: MCF7; assay: Induction of apoptosis in human MCF7 cells assessed as viable cells at 30 uM incubated for 24 hrs by AnnexinV-FITC and propidium iodide staining based flow cytometry analysis (reference value: 87.12 %); format: functional; conditions: read-out: Activity
[12] = tested on: MCF7; assay: Induction of apoptosis in human MCF7 cells assessed as early apoptotic cells at 30 uM incubated for 24 hrs by AnnexinV-FITC and propidium iodide staining based flow cytometry analysis (reference value: 3.08 %); format: functional
[13] = tested on: MCF7; assay: Induction of apoptosis in human MCF7 cells assessed as late apoptotic cells at 30 uM incubated for 24 hrs by AnnexinV-FITC and propidium iodide staining based flow cytometry analysis (reference value: 7.15 %); format: functional
[14] = tested on: MCF7; assay: Induction of apoptosis in human MCF7 cells assessed as necrotic cells at 30 uM incubated for 24 hrs by AnnexinV-FITC and propidium iodide staining based flow cytometry analysis (reference value: 2.35 %); format: functional

| SMILES | IC50 [1] [µM] | IC50 [2] [µM] | other results |
| --- | --- | --- | --- |
| O=C(NCc1ccc2c(c1)OCO2)C1CC2OC1C(c1ccc(O)cc1)=C2c1ccc(O)cc1 (stereo unspecified) | > 50 | 35.2 | – |
| O=C(NC1CC1)C1CC2OC1C(c1ccc(O)cc1)=C2c1ccc(O)cc1 (stereo unspecified) | > 50 | > 100 | – |
| O=C(Oc1cccnc1Br)C1CC2OC1C(c1ccc(O)cc1)=C2c1ccc(O)cc1 (stereo unspecified) | > 50 | 84 | – |
| Cc1cc(=O)oc2cc(OS(=O)(=O)C3CC4OC3C(c3ccc(O)cc3)=C4c3ccc(O)cc3)ccc12 (stereo unspecified) | 13.7 | 38.3 | – |
| O=S(=O)(Oc1cccc(F)n1)C1CC2OC1C(c1ccc(O)cc1)=C2c1ccc(O)cc1 (stereo unspecified) | 1.55 | 8.79 | viability at 5 µM [3]: 84.7%; Activity [4]: 4.62%; Activity [5]: 8.57%; Activity [6]: 2.08%; viability at 10 µM [7]: 79.7%; Activity [8]: 7.1%; Activity [9]: 11.03%; Activity [10]: 2.21%; viability at 30 µM [11]: 56.9%; Activity [12]: 13.74%; Activity [13]: 23.57%; Activity [14]: 5.79% |
| O=S(=O)(Oc1cncc(Br)c1)C1CC2OC1C(c1ccc(O)cc1)=C2c1ccc(O)cc1 (stereo unspecified) | > 50 | 16.4 | – |
| O=S(=O)(Oc1cncc(F)c1)C1CC2OC1C(c1ccc(O)cc1)=C2c1ccc(O)cc1 (stereo unspecified) | 18.3 | 13.8 | – |
| O=C(Oc1cccnc1Cl)C1CC2OC1C(c1ccc(O)cc1)=C2c1ccc(O)cc1 (stereo unspecified) | 17.4 | 38.2 | – |
| O=S(=O)(Oc1cccc2ccccc12)C1CC2OC1C(c1ccc(O)cc1)=C2c1ccc(O)cc1 (stereo unspecified) | > 50 | 37.7 | – |
| O=c1cc(C(F)(F)F)c2ccc(OS(=O)(=O)C3CC4OC3C(c3ccc(O)cc3)=C4c3ccc(O)cc3)cc2o1 (stereo unspecified) | > 50 | 12.5 | – |
| O=S(=O)(Oc1ccccc1)C1CC2OC1C(c1ccc(O)cc1)=C2c1ccc(O)cc1 (stereo unspecified) | > 50 | 28.7 | – |
| Cc1cccc(NC(=O)C2CC3OC2C(c2ccc(O)cc2)=C3c2ccc(O)cc2)c1 (stereo unspecified) | > 50 | 44.5 | – |
| O=S(=O)(Oc1ccc2ccccc2c1)C1CC2OC1C(c1ccc(O)cc1)=C2c1ccc(O)cc1 (stereo unspecified) | 15.1 | 4.11 | – |
| CC/C(=C(\c1ccc(O)cc1)c1ccc(OCCN(C)C)cc1)c1ccccc1 [AFIMOXIFENE] | > 50 | – | – |

Continued, in another order:

| IC50 [1] [µM] | IC50 [2] [µM] | SMILES | other results |
| --- | --- | --- | --- |
| > 50 | 18.8 | CCOC(=O)c1ccc(NS(=O)(=O)C2CC3OC2C(c2ccc(O)cc2)=C3c2ccc(O)cc2)cc1 (stereo unspecified) | – |
| 4.08 | 10.2 | O=S(=O)(Oc1cccc(Cl)n1)C1CC2OC1C(c1ccc(O)cc1)=C2c1ccc(O)cc1 (stereo unspecified) | – |
| > 50 | 16.7 | O=S(=O)(Oc1cccc2cccnc12)C1CC2OC1C(c1ccc(O)cc1)=C2c1ccc(O)cc1 (stereo unspecified) | – |
| > 50 | 26.2 | Cc1cccc(NC(=O)C2CC3OC2C(c2ccc(O)cc2)=C3c2ccc(O)cc2)n1 (stereo unspecified) | – |
| 13.2 | 15.1 | COC(=O)c1ccc(NS(=O)(=O)C2CC3OC2C(c2ccc(O)cc2)=C3c2ccc(O)cc2)cc1 (stereo unspecified) | – |
| > 50 | 49.4 | O=S(=O)(Oc1cncc(Cl)c1)C1CC2OC1C(c1ccc(O)cc1)=C2c1ccc(O)cc1 (stereo unspecified) | – |
| > 50 | 4.1 | O=S(=O)(Oc1ccc(-c2ccccc2)cc1)C1CC2OC1C(c1ccc(O)cc1)=C2c1ccc(O)cc1 (stereo unspecified) | – |
| 7.13 | 30.2 | O=S(=O)(Oc1cccnc1Cl)C1CC2OC1C(c1ccc(O)cc1)=C2c1ccc(O)cc1 (stereo unspecified) | – |
| 30 | 30.5 | COC(=O)c1ccccc1NS(=O)(=O)C1CC2OC1C(c1ccc(O)cc1)=C2c1ccc(O)cc1 (stereo unspecified) | – |
| 12.3 | 7.84 | O=S(=O)(Oc1cccnc1Br)C1CC2OC1C(c1ccc(O)cc1)=C2c1ccc(O)cc1 (stereo unspecified) | – |
| 5.92 | 7.9 | O=S(=O)(Oc1cccc(Br)n1)C1CC2OC1C(c1ccc(O)cc1)=C2c1ccc(O)cc1 (stereo unspecified) | – |
